Results reported in patent US9322049B2, “Activation and activators of SirT6” (CORNELL UNIVERSITY, priority 2009, dated 2016).
Where two headings read alike, the source gives them in different places. Values belong to the molecule of their own block, whether it stands above or below them.

What was measured:
SirT6 [1] = target: T1, SirT6 (Homo sapiens, UniProt Q8N6T7); assay: Activation of SIRT6 by nucleosides or nucleotides, HPLC of AADPR (Example 8); assay type: biochemical; settings: 800 μM NAD+, 500 μM H3 peptide, 11.3 μM SIRT6
T1 construct: The protein expression and purification were the same as the full length SIRT6 as described above; made in house; host or cells: E. coli BL21 Codon-plus RIPL
Method: Reactions containing 800 μM NAD^+, 500 μM H3 peptide, and 100 mM phosphate buffer at pH 7.5, with varying concentrations of nucleosides or nucleotides were initiated by addition of SIRT6 enzyme to a concentration of 11.3 μM. Reactions were incubated for 2 hours at 37° C. and quenched by addition of trifluoroacetic acid to pH 2. After centrifugation to remove precipitates, reactions were injected on HPLC for activity analysis. Production of 2′- and 3′-AADPR were analyzed at 260 nm.

SirT6 [2] = target: T1, SirT6; assay: Gel shift assay of DNA association to SirT6 (Example 5); assay type: binding; settings: 1 mM suramin; 50 ng/μl linearized pSTBlue, 10 μM SirT6
Method: Lane 1, DNA+NAD; Lane 2, DnA+H3; Lane 3, DNA+NAD+H3; Lane 4, DNA+SirT6; Lane 5, DNA+NAD+SirT6; Lane 6, DNA+H3+SirT6; Lane 7, DNA+NAD+H3+SirT6; Lane 8, DNA+SirT6+1 mM suramin; Lane 9, DNA+NAD+SirT6+1 mM suramin; Lane 10, DNA+H3+SirT6+1 mM suramin; Lane 11, DNA+NAD+H3+SirT6+1 mM suramin; Lane 12, DNA only. […] Lane 1, DNA+H3; Lane 2, DNA+H4; Lane 3, DNA+SirT6; Lane 4, DNA+H3+SirT6; Lane 5, DNA+H4+SirT6; Lane 6, DNA+NAD+H3+SirT6; Lane 7, DNA+NAD+H4+SirT6; Lane 8, DNA+SirT6+1 mM suramin; Lane 9, DNA+H3+SirT6+1 mM suramin; Lane 10, DNA+H4+SirT6+1 mM suramin; Lane 11, DNA+NAD+H3+SirT6+1 mM suramin; Lane 12, DNA+NAD+H4+SirT6+1 mM suramin; Lane 13, DNA only. 6 μl of each sample involving 50 ng/μl linearized pSTBlue plasmid, 800 μM NAD, 10 μM SirT6, 480 μM H3/H4, and/or 1 mM suramin were loaded to 0.6% native agarose gel containing ethidium bromide and ran at 100 V for one and half hours. DNA bound to SirT6 stayed in the wells and free DNA ran to the bottom of the gel. The top arrow indicated the large complex formed by DNA and SirT6.
The plasmid pSTBlue was linearized by EcoRI, BamHI, or EcoRV, and then purified by DNA gel extraction kit (Novagen) or […]™ III kit (MP Biomedicals, LLC). 6 μl of each sample contained 50 ng/μl of linearized pSTBlue, 800 μM NAD, 10 μM SirT6/truncated form, 480 μM H3, and/or 1 mM suramin as indicated. […]

[3] = target: T2, truncated SirT6 (deletion of N terminal 17 amino acids) (Homo sapiens, UniProt Q8N6T7); assay: Deacetylation rate of truncated SirT6 with suramin or single stranded DNA; assay type: biochemical; settings: 50 μM suramin or 100 ng/μl single stranded DNA; 800 μM NAD, 480 μM H3, 10 μM enzyme
T2 construct: The truncated SIRT6 was cloned similarly with the full length SIRT6; poly-histidine (pET28a) (N); made in house; host or cells: E. coli BL21 Codon-plus RIPL
Description: The deacetylation rate of different truncated SirT6 was normalized to the rate of full length SirT6 for the comparison.
The truncated SIRT6 was cloned similarly with the full length SIRT6. The primers used in the cloning of different truncated SIRT6 are the following: SIRT6Δ2-7 Forward 5′ GCTAGC ATGGGGCTGTCGCCGTACGCG 3′ (SEQ ID NO: 4); SIRT6Δ2-12 Forward 5′ GCTAGC ATG […] 3′ (SEQ ID NO: 5); SIRT6Δ2-18 Forward 5′ GCTAGC ATGGGCCTCCCGGAGATCTTCGAC 3′ (SEQ ID NO: 6); SIRT6Δ2-51 Forward 5′ 5′ GCTAGC ATGACGGGTGCCGGCATCAGCACT 3′ (SEQ ID NO: 7). The common reverse primer is 5′[…] 3′ (SEQ ID NO: 8). The truncated SIRT6 was amplified by PCR reaction. The PCR product was then ligated into pSTblue-1 (Novagen). After digestion with NheI and BamHI, the fragment containing SIRT6 gene was ligated into pET28a vector (Novagen). The SIRT6 truncated sequence in pET28a plasmid was confirmed by DNA sequencing, and the plasmid was then transformed into BL21Codon-plus RIPL cells (Stratagene). The protein expression and purification were the same as the full length SIRT6 as described above.

SirT6 [4] = target: T1, SirT6; assay: Determination of Kd of suramin for SirT6 activation by HPLC (Example 1); assay type: biochemical
Method: FIG. 2C depicts the determination of Kd of suramin for activation of SirT6. […] After 2 hours incubation at 37° C., the deacetylated H3 was separated from H3 by gradient (0˜30%) acetonitrile in 0.1% TFA using a C18 column, and analyzed by integrating its area at 215 nm wavelength.
The precipitated proteins and other insolubles were removed by centrifugation at 15,000 rpm for 5 minutes. The peptides were separated by a Waters Xterra RP-18 column using a gradient of 0-30% acetonitrile in 0.1% trifluoroacetic acid. […] The turnover rates versus […] were plotted and fitted to the equation: Activation (Fold)=1+m*x/(Kd+x) using the software Kaleidagraph.

SirT6-DNA complex = target: T3, SirT6-DNA complex (Homo sapiens, UniProt Q8N6T7); assay: Suramin competition with binding of linearized DNA to SIRT6 (Example 6); settings: for Kd: read-out: Kd of suramin for dissociation of linearized DNA from SirT6
T3 construct: The protein expression and purification were the same as the full length SIRT6 as described above; made in house; host or cells: E. coli BL21 Codon-plus RIPL
Method: The linearized DNA was incubated with SirT6 and Ni-NTA resin. The resin was washed as described in Materials and Methods, and the complex of SirT6-DNA was dissociated by 1 mM suramin. The parallel experiments were done in the presence of 500 uM H3 peptide. DNA bound to SirT6 was quantified and fit to Michaelis-Menten equation to get Kd of DNA binding to the enzyme. […] The single stranded DNA was incubated with SirT6 and Ni-NTA resin. The resin was washed and the complex of SirT6-ssDNA was dissociated by 1 mM suramin. The parallel experiments were done in the presence of 500 uM H3 peptide. […] The linearized DNA was incubated with SirT6 and Ni-NTA resin with or without H3 peptide. After washing, the resin was incubated with different concentration of surmain. The dissociated DNA was quantified by gel electrophoresis. […] After the resin was washed, DNA was dissociated with 1 mM suramin and quantified by gel electrophoresis. Lane 1, 150 ng circular pSTBlue (C-pSTBlue); Lane 2, 150 ng pSTBlue cut with BamHI (B-pSTBlue); Lane 3, 150 ng pSTBlue cut with EcoRV (E-pSTBlue); Lane 4, circular pSTBlue bound to SirT6; Lane 5, pSTBlue cut with BamHI bound to SirT6; Lane 6, pSTBlue cut with EcoRV bound to SirT6; Lane 7, circular pSTBlue bound to SirT6 in the presence of H3; Lane 8, pSTBlue cut with BamHI bound to SirT6 in the presence of H3; Lane 9, pSTBlue cut with EcoRV bound to SirT6 in the presence of H3; Lane 10, DNA ladder.
In order to test if suramin competed with the binding of DNA to SIRT6, 20 ng/μl pSTBlue was incubated with 5 μM SIRT6, 25% slurry Ni-NTA resin, and/or 1 mM H3 peptide. After incubation for 1 hour at room temperature, the SIRT6-DNA-resin complex was washed with 10 and 20 mM imidazole, 100 mM phosphate buffer, pH 7.5 as described above. The SIRT6-DNA-resin complex was incubated with different concentrations of suramin. The dissociated DNA was then quantified by 0.8% agarose gel electrophoresis and the DNA level was fitted to Michaelis-Menten equation using the software Kaleidagraph.

SirT6 [5] = target: T1, SirT6; assay: Determination of Kd of DNA for SirT6 activation by HPLC (Example 2); assay type: biochemical; settings: 800 μM NAD, 480 μM H3, 10 μM SirT6, 2 hours 37° C.; unit given as mM
Method: FIG. 5A depicts a schematic of DNA structure. […] After 2 hours incubation at 37° C., either the deacetylated H3 was separated from H3 in the reaction containing the digested calf thymus DNA or AADPR was separated from other components in the reaction containing ssDNA, the plasmid, or dsDNA.
The plasmid pSTBlue was digested with BamHI and EcoRV and purified by […]™ III kit. […] The AADPR was separated by HPLC and the quantified data were fit into Michaelis-Menten equation to get Km of H3.
In the enzymatic reaction, the following DNA was used.
Calf thymus DNA (USB Corporation), which was digested with EcoRI and then purified using Spinprep Gel DNA Kit (Novagen);
ssDNA (5′ […] 3′ (SEQ ID NO: 9), Integrated DNA Technologies);
dsDNA (forward 5′ […] 3′ (SEQ ID NO: 10), reverse 5′ […] 3′ (SEQ ID NO: 11), Integrated DNA Technologies); and
pSTBlue plasmid, which was amplified using DH5α cells and purified by WIZARD™ PLUS (Midiprep) DNA purification system (Promega).
The precipitated proteins and other insolubles were removed by centrifugation at 15,000 rpm for 5 minutes. DNA in the supernatant was further removed by centrifugation at 15,000 rpm for 10 minutes using Microcon with 10 kDa cutoff (Millipore). In the experiment with the digested calf thymus DNA, the peptides were separated by a Waters Xterra RP-18 column using a gradient of 0-30% acetonitrile in 0.1% trifluoroacetic acid. […]

T3 sequence (Q8N6T7 whole entry, one chain of several): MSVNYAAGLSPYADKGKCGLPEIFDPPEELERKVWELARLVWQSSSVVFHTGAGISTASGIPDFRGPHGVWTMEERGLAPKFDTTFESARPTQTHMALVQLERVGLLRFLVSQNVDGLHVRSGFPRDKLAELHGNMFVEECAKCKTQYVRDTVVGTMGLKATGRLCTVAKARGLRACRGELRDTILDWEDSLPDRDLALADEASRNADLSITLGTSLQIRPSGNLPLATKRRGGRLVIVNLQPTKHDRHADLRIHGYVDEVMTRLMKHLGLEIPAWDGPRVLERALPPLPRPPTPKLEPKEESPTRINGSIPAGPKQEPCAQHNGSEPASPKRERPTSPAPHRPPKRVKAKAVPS
T1 sequence (Q8N6T7 whole entry): as the sequence (Q8N6T7 whole entry, one chain of several) above
T2 sequence (Q8N6T7 with tags, fused parts or gaps): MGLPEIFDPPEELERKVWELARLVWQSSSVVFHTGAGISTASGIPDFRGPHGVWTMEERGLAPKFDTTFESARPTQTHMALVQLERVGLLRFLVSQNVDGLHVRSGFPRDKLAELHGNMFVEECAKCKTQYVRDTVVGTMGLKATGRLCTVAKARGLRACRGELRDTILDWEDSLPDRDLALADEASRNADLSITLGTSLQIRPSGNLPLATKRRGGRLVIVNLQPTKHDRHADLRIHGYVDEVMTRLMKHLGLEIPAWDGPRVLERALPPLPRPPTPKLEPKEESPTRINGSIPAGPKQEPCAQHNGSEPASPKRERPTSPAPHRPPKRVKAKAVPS

SIRT6 activated (SirT6 [1]; at 500 μM): 30% activated at 500 μM
Molecule: NC(=O)c1ccc[n+]([C@@H]2O[C@H](CO)[C@@H](O)C2(F)F)c1 [gem-diF-NR, 1-(2′-deoxy-2′,2′-difluoro-ribofuranosyl)-nicotinamide]

SIRT6 activated (SirT6 [1]; at 500 μM): 90% activated at 500 μM
Molecule: NC(=O)c1ccc[n+]([C@@H]2O[C@H](COP(=O)([O-])O)C(O)C2(Cl)Cl)c1 (stereo partly drawn) [gem-diCl-NMN]

SIRT6 activated (SirT6 [1]; at 1 mM): 30% activated at 1 mM
Molecule: NC(=O)c1ccc[n+]([C@@H]2O[C@H](CO)C(O)C2(Cl)Cl)c1 (stereo partly drawn) [gem-diCl-NR]

Association of DNA to SirT6 (SirT6 [2]): weakened
Activation of truncated SirT6 deacetylation [3]: lost of activation
Kd (SirT6 [4]): 54.7 µM
Vmax of dissociated DNA (SirT6-DNA complex; in the absence of H3): 6.37 ng/µL
Kd (SirT6-DNA complex; in the absence of H3): 72.4 µM
Vmax of dissociated DNA (SirT6-DNA complex; in the presence of H3): 17.8 ng/µL
Kd (SirT6-DNA complex; in the presence of H3): 129 µM
Molecule: Cc1ccc(C(=O)Nc2ccc(S(=O)(=O)O)c3cc(S(=O)(=O)O)cc(S(=O)(=O)O)c23)cc1NC(=O)c1cccc(NC(=O)Nc2cccc(C(=O)Nc3cc(C(=O)Nc4ccc(S(=O)(=O)O)c5cc(S(=O)(=O)O)cc(S(=O)(=O)O)c45)ccc3C)c2)c1 [suramin]

SIRT6 activated (SirT6 [1]; at 550 μM): 17% activated at 550 μM
Molecule: NC(=O)c1ccc[n+]([C@@H]2O[C@H](CO)[C@H](O)C2F)c1 (stereo partly drawn) [ribo-F-NR, 1-(2-deoxy-2-fluoro-D-ribofuranosyl)-nicotinamide]

B1: dsDNA: dsDNA, forward SEQ ID NO: 10, reverse SEQ ID NO: 11, Integrated DNA Technologies (nucleic acid)
sense: AAGCATTTATCAGGGTTATTGTCTCATGAGCGGAT
antisense: ATCCGCTCATGAGACAATAACCCTGATAAATGCTT
modifications: DNA, backbone and methylation of C not given here
Kd (SirT6 [5]): > 10 mM
